Laboratory results: ChEMBL document CHEMBL1177693, “Antimalarials from nature” (Bioorg Med Chem, 2009)
≈ marks a conversion by molar mass, not a printed value.

What follows are molecules tested on Plasmodium falciparum (assay: Antimalarial activity against Plasmodium falciparum). Conditions: not given.
Type: functional, organism-based

Row | Structure (SMILES) | fold change (FC)
1 | C=C(COCc1ccc(Br)cc1)[C@@H]1CC[C@]2(C)CC[C@]3(C)[C@H](CC[C@@H]4[C@@]5(C)CC[C@H](OC(=O)CCCCCCC(N)=O)C(C)(C)[C@@H]5CC[C@]43C)[C@@H]12 | 7

Same assay, conditions: Plasmodium falciparum

Row | Structure (SMILES) | IC50 | EC50 | MIC
2 | CC(=O)O[C@@H]1C(=O)c2c(O)cc(O)cc2O[C@@H]1c1ccc(O)cc1 | 24.3 µg/mL | – | –
3 | C=C1C(=O)[C@@]23CC[C@H]4[C@@]5(C)CCC[C@@]4(OC5=O)[C@@]2(C)CC[C@@H]1C3 | 1.57 µg/mL | – | –
4 | COc1cc2c(cc1O)[C@@H]1C[C@H](C[C@H]3CCCCN31)OC(=O)/C=C\c1ccc(O)c-2c1 | 2.8 µg/mL | – | –
5 | C[C@@H]1CC[C@H]2C(C)(C)[C@H](O)CC[C@]2(C)[C@@]12Cc1c(O)cc3c(c1O2)COC3=O | 0.15 µg/mL | – | –
6 | C[C@H]1[C@H](O)CCC2=CC(=O)[C@@]3([C@@]4(CO)CO4)O[C@@H]3[C@@]21C | – | 0.5 µg/mL (≈ 1.78 µM) | –
7 | CC1(C)CC[C@]2(C(=O)O)CC[C@]3(C)C(=CC[C@@H]4[C@@]5(C)CC[C@@H](O)C(C)(C)[C@@H]5CC[C@]43C)[C@@H]2C1 | 28.3 µM | – | –
8 | CCCCCCCCCCCCCC1CC(=O)NCCCNCCCCNCCCN1 (configuration not stated) [BUDMUNCHIAMINE L4] | 14 µM | – | –
9 | C/C(=C\[C@@H](O)[C@H](O)[C@@H](C)C1=CC[C@@]2(C)C[C@@H]3[C@H](C)CC[C@@H]3/C(C(=O)O)=C\C[C@H]12)C(=O)O [HALOROSELLINIC ACID] | 13 µg/mL | – | –
10 | C=CC(C)(C)c1c2c(c(OC)c3ccc(=O)oc13)C=CC(C)(C)O2 [DENTATIN] | 8.5 µg/mL | – | –
11 | CO[C@H]1[C@@H](O)[C@H](O[C@H]2[C@@H](OC)C[C@H](O[C@H]3[C@@H](OC)C[C@@H](O[C@H]4CC[C@@]5(C)C(=CC[C@@H]6[C@@H]5C[C@@H](OC(=O)c5ccccc5)[C@]5(C)[C@@H]([C@H](C)OC(C)=O)CC[C@]65O)C4)O[C@@H]3C)O[C@@H]2C)O[C@H](C)[C@H]1O | 6.25 µg/mL | – | –
12 | COc1ccc2c(c1O)CCc1cc(O)c(C)c3c1C2CC(C)(C)O3 (stereo not drawn) [RACEMOSOL] | – | 0.9 µg/mL (≈ 2.64 µM) | –
13 | COc1c(O)cc2oc3cc(O)c(CC=C(C)C)c(O)c3c(=O)c2c1CC=C(C)C [MANGOSTIN] | 17 µM | – | –
14 | C[C@@]12C=C3OC[C@]4(C)C=CC(=O)[C@@](C)([C@@H]34)[C@@]13O[C@H]3C[C@@]1(C)[C@H](C3=CC(O)OC3=O)C[C@H]3O[C@@]321 (mixture of isomers) [TRICHIRUBINE A] | 0.3 µg/mL | – | –
15 | CC1=CC(=O)[C@@H](O)[C@]2(C)[C@H]3[C@]4(O)OC[C@@]35[C@@H](C[C@@H]12)OC(=O)[C@H](O)[C@@]5(O)[C@@]1(CO1)[C@H]4O [PASAKBUMIN B] | 0.0226 µg/mL | – | –
16 | C=C1C([C@@]2(C)C=CC(=O)C(C)(C)[C@@H]2[C@H](OC(C)=O)C(=O)OC)CC[C@@]2(C)[C@H](c3ccoc3)OC(=O)C[C@]12O (some centres not stated) [DOMESTICULIDE B] | 3.2 µg/mL | – | –
17 | COc1cc2c(cc1OC)[C@@H]1C[C@H](C[C@H]3CCCCN31)OC(=O)/C=C\c1ccc(O)c-2c1 [VERTINE] | 4.76 µg/mL | – | –
18 | CC1=CC(=O)c2c(O)cccc2C1=O [PLUMBAGIN] | 0.27 µM | – | –
19 | C=C1CC[C@@H]2[C@@](C)(COC(=O)/C=C/c3ccc(O)cc3)CCC[C@@]2(C)[C@@H]1CC[C@H](C)CC(=O)O | 4.3 µg/mL | – | –
20 | COC(=O)/C(=C/C[C@H]1[C@@]2(CC[C@H]3C(C)(C)CCC[C@@]31C)CO2)C1CO1 (some centres not stated) | 4.97 µM | – | –
21 | C=C(CO)[C@@]12O[C@@H]1[C@@]1(C)C(=CC2=O)CC[C@@H](O)[C@@H]1C | – | 0.32 µg/mL (≈ 1.21 µM) | –
22 | COc1cc2c3c(c1O)Oc1ccc(cc1)C[C@@H]1c4c(cc(OC)c(O)c4Oc4ccc(cc4)C[C@H]3N(C)CC2)CCN1C [ISOCHONDODENDRINE] | 0.892 µM | – | –

Row | Structure (SMILES) | IC50 | EC50 | MIC
23 | C=C[C@@]12COC(=O)C(=C)[C@@H]1[C@H]1OC(=O)[C@@H](C)[C@@H]1[C@@H](OC(=O)C(=C)CO)C2 | 1.1 µg/mL | – | –
24 | O=C1O[C@@H]2[C@@H](OC(=O)c3cc(O)c(O)c(O)c3-c3c1cc(O)c(O)c3O)[C@H](O)O[C@@H]1COC(=O)c3cc(O)c(O)c(O)c3-c3c(O)c(O)c4oc(=O)c5c(c(O)c(O)c6oc(=O)c3c4c65)-c3c(cc(O)c(O)c3O)C(=O)O[C@@H]21 (racemic) [PUNICALAGIN] | 27.7 µg/mL | – | –
25 | C=C[C@@]12COC(=O)C(=C)[C@@H]1[C@@H](O)[C@H](C(=C)C(=O)OC)[C@@H](OC(=O)C(=C)CO)C2 [VERNODALOL] | 4.8 µg/mL | – | –
26 | CCCCCCCCCCCCCCCC1CC(=O)NCCCNCCCCNCCCN1 (configuration not stated) [BUDMUNCHIAMINE L5] | 15 µM | – | –
27 | O[C@H]1[C@H]2c3cc4c(cc3CN3CCC(=C[C@@H]1O)[C@H]23)OCO4 [LYCORINE] | 0.62 µg/mL | – | –
28 | O=C1OC(O)C(Cl)=C1Cl (configuration not stated) [MUCOCHLORIC ACID] | 0.137 µg/mL | – | –
29 | CC(O)c1cncc2c(=O)n3c(cc12)-c1[nH]c2ccc(O)cc2c1CC3 (configuration not stated) [NAUCLEOFFICINE E] | 38.3 µM | – | –
30 | C=C1C2CC[C@@]3(C)[C@H](c4ccoc4)OC(=O)C[C@]13O[C@H]1CC(=O)C(C)(C)[C@H](C(O)C(=O)OC)[C@@]21C (some centres not stated) [6-HYDROXYANGOLENSIC ACID METHYL ESTER] | > 20 µg/mL | – | –
31 | NC[C@H](Cl)[C@@H](O)c1c[nH]c(N)n1 [GIRACODAZOLE] | 0.077 µM | – | –
32 | C=C1C(=O)O[C@@H]2C[C@@H](C)[C@@H]3C=CC(=O)[C@@]3(C)[C@@H](O)[C@H]12 [HELENALIN] | 0.23 µM | – | –
33 | Cc1cc(O)c2c(c1)[C@@H]([C@H]1O[C@H](OC(=O)c3ccccc3)[C@@H](O)[C@@H](O)[C@@H]1O)c1cccc(O)c1C2=O | 2.4 µM | – | –
34 | C=C1C([C@@]2(C)C=CC(=O)C(C)(C)[C@@H]2[C@H](O)C(=O)OC)CC[C@@]2(C)[C@H](c3ccoc3)OC(=O)C[C@]12O (some centres not stated) [DOMESTICULIDE A] | > 20 µg/mL | – | –
35 | O=C1c2ccc(O)cc2O[C@H](c2ccc(O)cc2)[C@H]1[C@@H]1C(=O)c2ccc(O)cc2O[C@H]1c1ccc(O)cc1 | 6.7 µM | – | –
36 | Cc1c(O)cc2c3c1OC(C)(C)CC3c1ccc(O)c(O)c1CC2 (stereo not drawn) [DEMETHYLRACEMOSOL] | – | 2 µg/mL (≈ 6.13 µM) | –
37 | C[C@@]12C=CC(=O)[C@@]3(C)[C@H]1[C@@H](OC2)[C@@H](OC(=O)c1ccccc1)[C@@]1(C)C2=CC[C@@H](C4=CC(O)OC4=O)[C@]2(C)C[C@@H]2O[C@]231 (mixture of isomers) [TRICHIRUBINE B] | 0.2 µg/mL | – | –
38 | CC(C)=CCc1c(O)cc2oc3ccc4c(c3c(=O)c2c1O)C=CC(C)(C)O4 [CALOTHWAITESIXANTHONE] | 2.7 µg/mL | – | –
39 | COc1cc(O)c(C(=O)CCc2ccccc2)c(O)c1[C@H]1C=C(C)CC[C@@H]1C(C)C | 5.64 µM | – | –
40 | CC(=O)Oc1cc(C)c(OC(C)=O)c2c1[nH]c1ccccc12 | 1.79 µg/mL | – | –
41 | C[C@@H]1CC[C@H]2C(C)(C)[C@H](O)CC[C@]2(C)[C@@]12Cc1c(O)cc(C=O)c(C=O)c1O2 | 0.85 µg/mL | – | –
42 | C=CC(C)(C)c1cc2c(O)c3c(c(C(C)(C)C=C)c2oc1=O)OC(C)(C)C=C3 [CLAUSARIN] | 0.1 µg/mL | – | –
43 | C=C1C2CC[C@@]3(C)[C@H](c4ccoc4)OC(=O)C[C@]13O[C@H]1CC(=O)C(C)(C)[C@H](CC(=O)OC)[C@@]21C | 5.9 µg/mL | – | –

Row | Structure (SMILES) | IC50 | EC50 | MIC
44 | Cc1cc(O)c2c(c1)[C@H]([C@H]1O[C@H](OC(=O)c3ccccc3)[C@@H](O)[C@@H](O)[C@@H]1O)c1cccc(O)c1C2=O [UVEOSIDE] | 2.4 µM | – | –
45 | C=C(C)C(O)Cc1cc(C(=O)/C=C/c2ccc(O)c(CC=C(C)C)c2)c(O)cc1O (configuration not stated) [BARTERICIN A] | 2.15 µM | – | –
46 | COc1c2c(cc(O)c1-c1cc(-c3ccc4c(-c5c(O)cc(O)c6c5C[C@@H](C)N[C@@H]6C)c(C)cc(OC)c4c3O)c(O)c3c(OC)cc(C)cc13)C[C@@H](C)N=C2C [KORUNDAMINE A] | 1.1 µg/mL | – | –
47 | CC(C)=CCc1cc(/C=C/C(=O)c2cc(CC=C(C)C)c(O)cc2O)ccc1O [STIPULIN] | 5.13 µM | – | –
48 | COc1cc2c(cc1O)CCN(C)[C@H]2Cc1ccc(Oc2c3c(cc(OC)c2OC)-c2c(OC)c(OC)c(O)c4c2[C@@H](C3)N(C)CC4)cc1 | 0.0242 µg/mL | – | –
49 | C/C=C(/CO[C@H]1O[C@@H](CO)[C@H](O)[C@@H](O)[C@@H]1O)c1cc2n(c(=O)c1CO)CCc1c-2[nH]c2ccccc12 [NAUCLEOFFICINE A] | 9.7 µM | – | –
50 | CC1=CC(=O)[C@@H](O)[C@]2(C)[C@H]3[C@]4(O)OC[C@@]35[C@@H](C[C@@H]12)OC(=O)[C@H](O)[C@@]5(O)[C@H](C)[C@H]4O [PASAKBUMIN C] | 0.0933 µg/mL | – | –
51 | COc1ccc2c(OC)c3c(C)cc(=O)[nH]c3c(OC)c2c1OC | 42.9 µM | – | –
52 | CC[C@H](C)[C@@H]([C@@H](CC(=O)N1CCC[C@H]1[C@H](OC)[C@@H](C)C(=O)N[C@@H](Cc1ccccc1)c1nccs1)OC)N(C)C(=O)[C@@H](NC(=O)[C@H](C(C)C)N(C)C)C(C)C [DOLASTATIN-10] | 0.0001 µM | – | –
53 | C/C=C(\C)C(=O)O[C@@H]1[C@H]2C(C)=CC(=O)[C@@H](O)[C@]2(C)[C@H]2[C@]3(O)OC[C@@]24[C@@H]1OC(=O)C[C@H]4[C@@H](C)[C@H]3O | 0.061 µg/mL | – | –
54 | C=C1C(=O)[C@@]23CC[C@H]4[C@@]5(C)CCC[C@@]4(OC5=O)[C@@]2(C)CC[C@]1(O)C3 | 0.67 µg/mL | – | –
55 | CC1(C)C=Cc2c(ccc(C(=O)/C=C/c3ccc(O)cc3)c2O)O1 | 3.36 µM | – | –
56 | C=C1C(=O)[C@@]23CC[C@H]4[C@@]5(C)CCC[C@@]4(OC5=O)[C@@]2(C)CC[C@]1(OC)C3 | 0.54 µg/mL | – | –
57 | C=C(C)[C@@H]1CC[C@]2(C)CC[C@]3(C)[C@H](CC[C@@H]4[C@@]5(C)CC[C@H](O)C(C)(C)[C@@H]5CC[C@]43C)[C@@H]12 [LUPEOL] | – | – | 13.1 µM (≈ 5.58 µg/mL)
58 | C=C1C(=O)O[C@@H]2/C=C(/CO)C3=CC(=O)[C@@](C)(C[C@@H](OC(=O)/C(C)=C\C)[C@@H]12)O3 | 0.3 µg/mL | – | –
59 | C=C1C(=O)O[C@@H]2/C=C(/C)C3=CC(=O)[C@](C)(O3)[C@H](O)[C@@H](OC(=O)CC(C)C)[C@@H]12 [LOBATIN B] | 16.5 µM | – | –
60 | COC1=C(OC)C(=O)C([C@H]2COc3c(cc(OC)c(OC)c3OC)C2)=CC1=O [ABRUQUINONE B] | 1.5 µg/mL | – | –
61 | COc1ccc2cc1Oc1cc3c(cc1OC)CCN(C)[C@@H]3Cc1ccc(cc1)Oc1c(O)c(OC)cc3c1[C@@H](C2)N(C)CC3 | 0.353 µM | – | –
62 | COc1cc2c(cc1OC)[C@H](Cc1ccc(Oc3c(O)c(OC)cc4c3C[C@@H]3c5c(c(O)c(OC)c(OC)c5-4)CCN3C)cc1)N(C)CC2 | 0.0102 µg/mL | – | –
